Data from ChEMBL document CHEMBL3797040, “Withanolides derived from Physalis peruviana (Poha) with potential anti-inflammatory activity” (Bioorg Med Chem Lett, 2016).

Tests used:
[1] = Toxicity against mouse RAW264.7 cells assessed as cell survival at 50 uM by SRB assay; assay type: cell-based; settings: read-out: Survival
[2] = Inhibition of TNFalpha-activated nuclear factor-kappa B activity (unknown origin) expressed in HEK293 cells incubated for 6 hrs by luciferase reporter gene based assay; assay type: cell-based; settings: Homo sapiens, HEK293, 6 h
HEK293 = assay: Inhibition of TNFalpha-activated nuclear factor-kappa B activity (unknown origin) expressed in HEK293 cells at 50 uM incubated for 6 hrs by luciferase reporter gene based assay; assay type: cell-based; settings: Homo sapiens
[3] = Toxicity against HEK293 cells assessed as cell survival at 50 uM; assay type: cell-based; settings: human, read-out: Survival
RAW264.7 [4] = assay: Inhibition of lipopolysaccharide-induced nitric oxide production in mouse RAW264.7 cells at 50 uM pre-incubated for 30 mins before LPS stimulation for 20 hrs by Griess reagent based assay; assay type: functional
RAW264.7 [5] = assay: Inhibition of lipopolysaccharide-induced nitric oxide production in mouse RAW264.7 cells pre-incubated for 30 mins before LPS stimulation for 20 hrs by Griess reagent based assay; assay type: functional, cell-based

Row | Structure (SMILES) | viability at 50 µM [1] | IC50 [2] | inhibition (HEK293) | viability at 50 µM [3] | inhibition at 50 µM (RAW264.7 [4]) | IC50 (RAW264.7 [5])
1 | CC1=C(C)C(=O)O[C@@H]([C@](C)(O)[C@]2(O)CC[C@@]3(O)[C@@H]4[C@@H](O)[C@@H](O)[C@@]5(O)CC=CC(=O)[C@]5(C)[C@H]4CC[C@]23C)C1 | 90.4% | 24.6 µM | 66.9% | 98.4% | 58.3% | 44.6 µM
2 | CC1=C(C)C(=O)O[C@@H]([C@](C)(O)[C@]2(O)C[C@H](O)[C@@]3(O)[C@@H]4C[C@H](O)[C@@]5(O)CCCC(=O)[C@]5(C)[C@H]4CC[C@@]32C)C1 | 100% | 10.4 µM | 60.4% | 83.9% | 47.7% | 
3 | CC1=C(C)C(=O)O[C@@H]([C@](C)(O)[C@]2(O)CC[C@@]3(O)[C@@H]4C[C@H](O)C5=CC=CC(=O)[C@]5(C)[C@H]4CC[C@]23C)C1 | 79.3% | 5.6 µM | 85% | 100% | 99.2% | 2.4 µM
4 | CC(=O)OC1C[C@H](O)CC2=CC[C@H]3[C@@H]4CC[C@H]([C@@](C)(O)[C@@H](O)C[C@@H]5COC(=O)[C@@]5(C)O)[C@@]4(C)CC[C@@H]3[C@]21C (some centres undefined) | 100% | 2.1 µM | 64.4% | 73.3% | 3.7% | 
5 | CC1=C(C)C(=O)O[C@@H]([C@](C)(O)[C@]2(O)CC[C@@]3(O)[C@@H]4C[C@H]5O[C@]56[C@@H](O)[C@@H](O)CC(=O)[C@]6(C)[C@H]4CC[C@]23C)C1 | 100% |  | 54.1% | 97.1% | 86% | 7.8 µM
6 | CC1=C(C)C(=O)O[C@@H]([C@](C)(O)C2=CC[C@@]3(O)[C@@H]4C[C@H]5O[C@]56[C@@H](O)CCC(=O)[C@]6(C)[C@H]4CC[C@]23C)C1 | 100% |  | 43.7% | 81.9% | 64.7% | 14.6 µM
7 | CC1=C(CO)C[C@H]([C@](C)(O)[C@]2(O)CC[C@@]3(O)[C@@H]4C[C@@H](O)[C@@]5(O)CC=CC(=O)[C@]5(C)[C@H]4CC[C@]23C)OC1=O | 100% |  | 41% | 81.6% | 7.4% | 
8 | CNC(=N)NCCC[C@H](N)C(=O)O [TILARGININE] |  |  |  |  |  | 23.5 µM
9 | CC1=C(C)C(=O)O[C@@H]([C@@](C)(O)[C@]2(O)CC[C@@]3(O)[C@@H]4C[C@@H](O)[C@@]5(O)CC=CC(=O)[C@]5(C)[C@H]4CC[C@]23C)C1 | 84.1% | 31.2 µM | 65.8% | 89.6% | 26.4% | 
10 | CC1=C(C)C(=O)O[C@@H]([C@](C)(O)[C@]2(O)CC[C@@]3(O)[C@@H]4C[C@H]5O[C@]56[C@@H](O)C=CC(=O)[C@]6(C)[C@H]4CC[C@]23C)C1 | 50.1% | 0.04 µM | 99.5% | 88.6% | 99.4% | 0.32 µM
11 | CC(=O)OC1C[C@H](O)CC2=CC[C@H]3[C@@H]4CC[C@H]([C@@](C)(O)[C@@H](O)C[C@@H]5COC(=O)[C@@H]5C)[C@@]4(C)CC[C@@H]3[C@]21C (some centres undefined) | 95.3% | 1.1 µM | 56.1% | 36.5% | 84.2% | 11.8 µM
